Laboratory results taken from ChEMBL document CHEMBL5728357, “Small molecule inhibitors of lactate dehydrogenase and methods of use thereof” (2021).
Values joined by “and” are separate entries in the source; they are usually repeats but may differ in a detail not shown here. Equal entries are not always repeated.

Assay: Biochemical Assay: Test compounds were placed in a Greiner Bio-One (Monroe, N.C.) 1536-well black solid bottom assay plate. 200 millimolar (mM) Tris HCl, pH 7.4, 100 micromolar […] EDTA and 0.01% TWEEN-20™, final concentration, was used as the assay buffer. The LDHA reagent was 2 nanomolar (nM) Human LDHA (Meridian Life Science, Inc., Memphis, Tenn.), final concentration, in assay buffer.

IC50 | Structure (SMILES)
< 100 nM | C/C=C/c1cc(-c2nn(-c3nc(C(=O)O)cs3)c(CC3CC3)c2Cc2ccc([S+](N)(=O)[O-])c(F)c2)ccc1F
< 100 nM | N[S+](=O)([O-])c1ccc(Cc2c(-c3ccc(F)c(C(F)(F)F)c3)nn(-c3nc(C(=O)O)cs3)c2CC2CC2)cc1F
< 100 nM | C=C(C)c1cc(-c2nn(-c3nc(C(=O)O)cs3)c(CC3CC3)c2Cc2ccc([S+](N)(=O)[O-])c(F)c2)ccc1F
< 100 nM | CC(C)=Cc1cc(-c2nn(-c3nc(C(=O)O)cs3)c(CC3CC3)c2Cc2ccc([S+](N)(=O)[O-])c(F)c2)ccc1F
< 100 nM | N[S+](=O)([O-])c1ccc(Cc2c(-c3ccc(F)c(/C=C/C4CC4)c3)nn(-c3nc(C(=O)O)cs3)c2CC2CC2)cc1F

Second part, the molecule before the results:

Structure (SMILES) | IC50
CC#Cc1cccc(-c2nn(-c3ncc(C(=O)OCC)s3)c(CC3CC3)c2Cc2ccc([SH+](N)[O-])c(F)c2)c1 (stereo not given) | in the range around 29000 nM
COc1cccc(-c2cccc(-c3nn(-c4nc(C(=O)O)cs4)c(C4CC4)c3Cc3ccc([SH+](N)[O-])c(F)c3)c2)c1 (stereo not given) | < 100 nM
CCOC(=O)c1csc(-n2nc(-c3cccc(-c4ccc(C)cc4)c3)c(Cc3ccc([SH+](=O)[O-])c(F)c3)c2CC2CC2)n1 | in the range around 29000 nM and > 57000 nM
CCOC(=O)c1csc(-n2nc(-c3ccc(F)c(C#CC4CCCC4)c3)c(Cc3cccc([S+](N)(=O)[O-])c3)c2CC2CC2)n1 | > 57000 nM
Cc1ccc(-c2cc(-c3nn(-c4nc(C(=O)O)cs4)c(CC4CC4)c3Cc3ccc([SH+](N)[O-])c(F)c3)ccc2F)cc1 (stereo not given) | < 100 nM
N[S+](=O)([O-])c1ccc(Cc2c(-c3ccc(F)c(-c4ccc(F)cc4)c3)nn(-c3nc(C(=O)O)cs3)c2CC2CC2)c(F)c1 | < 100 nM
NS(=O)(=O)c1ccc(Cc2c(-c3cccc(-c4ccccc4)c3)nn(-c3nc(C(=O)O)cs3)c2CCC2CC2)cc1 | < 100 nM
NS(=O)(=O)c1ccc(Cc2c(CC3CC3)nn(-c3nc(OC=O)cs3)c2-c2cc(F)cc(-c3cccc(F)c3)c2)cc1 | in the range around 29000 nM
Cc1ccc(-c2cccc(-c3nn(-c4nc(C(=O)O)cs4)c(CC4CC4)c3Cc3ccc([SH+](N)[O-])cc3F)c2)cc1 (stereo not given) | < 100 nM
N[S+](=O)([O-])c1ccc(Cc2c(-c3ccc(F)c(/C=C/C4CCCC4)c3)nn(-c3nc(C(=O)O)cs3)c2CC2CC2)cc1F | < 100 nM
